Data reported in patent publication US11000525B2, “1-[2-(aminomethyl)benzyl]-2-thioxo-1,2,3,5-tetrahydro-4H-pyrrolo[3,2-d]pyrimidin-4-ones as inhibitors of myeloperoxidase” (AstraZeneca AB, priority 2014, dated 2021).
Entries after “also recorded” stand apart in the source; their conditions may differ.

Legend:
[1] = system: MPO purified from the human cell line HL60; assay: MPO inhibition screen (Test A), ascorbate loss at 260 nm; format: biochemical; settings: selectivity for MPO over TPO
Method: Methods for the determination of MPO inhibitory activity are disclosed in WO 02/090575. The pharmacological activity of compounds disclosed herein was tested in the following screen (Test A) in which the compounds were tested in the presence of ascorbate, which reacts with MPO-derived hypochlorous acid (HOCl) to form dehydro-ascorbate. The loss of ascorbate is followed by measuring absorbance at 260 nm.
Assay buffer: 100 μM diethyl triamine pentaacetic acid (DTPA) in buffer consisting of 10 mM Na2HPO4/NaH2PO4, 3 mM KCl in 140 mM NaCl, pH 7.4.
Enzyme solution: MPO purified from the human cell line HL60, 1.38 nM (final concentration 0.7 nM) and L-ascorbate, 100 μM (final concentration 50 μM) in Assay buffer
Absorbance was measured at 260 nm to obtain a compound blank value. After an additional 10 min, 40 μL of the substrate solution was added and the absorbance at 260 nm was recorded between 4 and 40 min to obtain kinetic readings of enzyme activity.

[2] = Plasma urate levels in healthy volunteers (clinical trials); format: in vivo, human; settings: daily dose for 10 days, NCT00914303, FIG. 2
Method: Subjects received placebo or the indicated daily dose for 10 days, and the difference in plasma urate levels versus baseline was calculated. Each symbol represents one subject.

| IC50 (TPO)/IC50 (MPO) [1] | SMILES | Reduction of plasma urate (uric acid) levels versus baseline [2] |
| --- | --- | --- |
| 1100 | O=c1[nH]c(=S)n(Cc2ccccc2CNC2CCC2)c2cc[nH]c12 [Example 10, 1-{2-[(Cyclobutylamino)methyl]benzyl}-2-thioxo-1,2,3,5-tetrahydro-4H-pyrrolo[3,2-d]pyrimidin-4-one] |  |
|  | CC(C)OCCn1c(=S)[nH]c(=O)c2[nH]ccc21 [AZD3241] | dose-dependent reduction of uric acid; also recorded: dose-dependently reduced urate levels |
